Experimental data taken from patent US8124637B2, “Anthra [1, 2-d]imidazole-6,11-dione derivatives, preparation method and application thereof” (National Defense Medical Center, priority 2010, dated 2012).

Tests used:
[1] = test system: hTERT promoter (PhTERT) expression; test: SEAP assay (PhTERT-SEAP reporter, H1299); type: cell-based, human; details: Homo sapiens, NCI-H1299, PhTERT-SEAP (H1299); for activity at 1 µM: read-out: Relative SEAP activity (%); for activity at 10 µM / activity at 100 µM: read-out: Relative SEAP activity (%) (converted)
Experimental: H1299 were grown in RPMI 1640 media supplemented with 10% fetal bovine serum, 100 units/mL penicillin and […] streptomycin in a humidified atmosphere with 5% CO2 at 37° C. Culture media were changed every three days. To establish stable cell lines that the expression of hTERT could be monitored by a reporter system, a about 3.3 kbp DNA fragment ranging from −3338 to +1 bp of the hTERT gene (hTERT promoter, PhTERT) was subcloned upstream to a secreted alkaline phosphatase gene (SEAP) and transfected into H1299 bp electroporation. The stable clones were selected using G418. The stable clones derived from H1299 were cultured using conditions that are similar to their parental cells.
Secreted alkaline phosphatase was used as the reporter system to monitor the transcriptional activity of hTERT. Here, about 10^4 cells each were grown in 96-well plates and incubated at 37° C. for 24 hours and changed with fresh media. Varying amounts of drugs were added and cells were incubated for another 24 hours. Culture media were collected and heated at 65° C. for 10 min to inactivate heat-labile phosphatases. An equal amount of SEAP buffer (2 M diethanolamine, 1 mM MgCl2, and 20 mM L-homoarginine) was added to the media and p-nitrophenyl phosphate was added to a final concentration of 12 mM. Absorptions at 405 nm were taken, and the rate of absorption increase is determined (the increasing rate of absorbance at 405 nm was used to represent the activity of SEAP).

[2] = MTT assay (relative cell survival), H1299; details: human, H1299 non-small cell lung cancer cells (PhTERT-SEAP), Relative MTT viability (%)

Row | Compound | activity at 1 µM [1] [%] | activity at 10 µM [1] [%] | activity at 100 µM [1] [%] | viability at 72 h, 1 µM [2] [%] | viability at 72 h, 10 µM [2] [%] | viability at 72 h, 100 µM [2] [%]
1 | CN(Cc1nc2ccc3c(c2[nH]1)C(=O)c1ccccc1C3=O)CC1OCCO1 [CL08, 2-(((1,3-dioxolan-2-yl)-N-methylmethanamino)methyl)-1H-anthra[1,2-d]imidazole-6,11-dione] | 90.4 ± 2.87 | 68.7 | 6.78 | 104 ± 3.91 | 89.8 | 28.3
2 | O=C1c2ccccc2C(=O)c2c1ccc1nc(CCN3CCN(c4ncccn4)CC3)[nH]c21 [CL39, 2-(2-(4-(pyrimidin-2-yl)piperazin-1-yl)ethyl)-1H-anthra[1,2-d]imidazole-6,11-dione] | 83 ± 3.61 | < 50 | -8.09 | 90.7 ± 5.81 | – | –
3 | CN(C)Cc1nc2ccc3c(c2[nH]1)C(=O)c1ccccc1C3=O [CL02, 2-((dimethylamino)methyl)-1H-anthra[1,2-d]imidazole-6,11-dione] | 83.6 ± 8.52 | < 50 | -2.26 | 98.9 ± 6.37 | > 50 | –
4 | O=C1c2ccccc2C(=O)c2c1ccc1nc(CN3CCOCC3)[nH]c21 [CL21, 2-(morpholinomethyl)-1H-anthra[1,2-d]imidazole-6,11-dione] | 102 ± 4.81 | 97.3 | 25.6 | 89.8 ± 2.58 | 70.8 | 13.4
5 | O=C1c2ccccc2C(=O)c2c1ccc1nc(CNCc3ccc4c(c3)OCO4)[nH]c21 [CL15, 2-((piperonylamino)methyl)-1H-anthra[1,2-d]imidazole-6,11-dione] | 74.5 ± 14.3 | 74.6 ± 17.4 | 1.32 | 109 ± 2.02 | 103 | 14.2
6 | O=C1c2ccccc2C(=O)c2c1ccc1nc(CN3CCSC3)[nH]c21 [CL23, 2-((thiazolidin-3-yl)methyl)-1H-anthra[1,2-d]imidazole-6,11-dione] | 106 ± 3.01 | 85.6 | 11.9 | 89.3 ± 4.79 | 75.5 | 5.18
7 | O=C(CCCl)Nc1ccc2c(c1NC(=O)CCCl)C(=O)c1ccccc1C2=O [CL34, 1,2-bis(3-chloropropionamido)anthraquinone] | 87.4 ± 4.51 | 12.5 ± 4.35 | -2.74 ± 0.61 | 94.1 ± 3.21 | < 50 | 5.85 ± 2.1
8 | O=C1c2ccccc2C(=O)c2c1ccc1nc(CN3CCCCCC3)[nH]c21 [CL18, 2-((azepan-1-yl)methyl)-1H-anthra[1,2-d]imidazole-6,11-dione] | 107 ± 5.16 | 66.5 | 3.79 | 104 ± 6.82 | 85.1 | –
9 | O=C1c2ccccc2C(=O)c2c1ccc1nc(CN3CCN(c4ccccc4F)CC3)[nH]c21 [CL30, 2-((4-(2-fluorophenyl)piperazin-1-yl)methyl)-1H-anthra[1,2-d]imidazole-6,11-dione] | 103 ± 3.44 | 78.2 | -0.29 | 88.4 ± 2.16 | 76.7 | 14.8
10 | C=CCN1CCN(Cc2nc3ccc4c(c3[nH]2)C(=O)c2ccccc2C4=O)CC1 [CL26, 2-((4-allylpiperazin-1-yl)methyl)-1H-anthra[1,2-d]imidazole-6,11-dione] | 87.2 ± 1.82 | 16.7 | -6.77 | 86 ± 3.37 | 44.8 | –
11 | O=C1c2ccccc2C(=O)c2c1ccc1nc(CN(Cc3ccccn3)Cc3ccccn3)[nH]c21 [CL10, 2-((di-(2-picolyl)amino)methyl)-1H-anthra[1,2-d]imidazole-6,11-dione] | 86.5 ± 3.63 | -6.44 | -7.58 | 101 ± 5.98 | – | –
12 | O=C1c2ccccc2C(=O)c2c1ccc1nc(CNCc3ccccc3C(F)(F)F)[nH]c21 [CL12, 2-((2-(trifluoromethyl)benzylamino)methyl)-1H-anthra[1,2-d]imidazole-6,11-dione] | 87.3 ± 3.26 | 81.2 | -1.71 | 98.5 ± 5.49 | 96.3 | 6.32
13 | O=C1c2ccccc2C(=O)c2c1ccc1nc(CNCc3ccc(C(F)(F)F)cc3)[nH]c21 [CL14, 2-((4-(trifluoromethyl)benzylamino)methyl)-1H-anthra[1,2-d]imidazole-6,11-dione] | 51.6 ± 0.68 | 78.5 | 2.56 | 74.3 ± 4.04 | 10.6 | –
14 | COc1cccc(CN(C)Cc2nc3ccc4c(c3[nH]2)C(=O)c2ccccc2C4=O)c1 [CL09, 2-((3-methoxy-N-methybenzylamino)methyl)-1H-anthra[1,2-d]imidazole-6,11-dione] | 105 ± 3.38 | 78.1 | -3.01 | 96.6 ± 5.02 | 97.6 | 9.24
15 | O=C1c2ccccc2C(=O)c2c1ccc1nc(CN3CCC4(CC3)OCCO4)[nH]c21 [CL19, 2-((1,4-dioxa-8-azaspiro[4.5]decane-8-yl)methyl)-1H-anthra[1,2-d]imidazole-6,11-dione] | 97 ± 1.84 | 95.5 | 14.1 | 103 ± 2.09 | 79.2 | 14.8
16 | CN1CCN(CCc2nc3ccc4c(c3[nH]2)C(=O)c2ccccc2C4=O)CC1 [CL36, 2-(2-(4-methylpiperazin-1-yl)ethyl)-1H-anthra[1,2-d]imidazole-6,11-dione] | 73.9 ± 3.2 | 7.1 | -3.06 | 87.2 ± 6.98 | < 50 | –
17 | CCCN(C)Cc1nc2ccc3c(c2[nH]1)C(=O)c1ccccc1C3=O [CL05, 2-((methylpropylamino)methyl)-1H-anthra[1,2-d]imidazole-6,11-dione] | 96 ± 6.58 | < 50 | -0.38 | 93.5 ± 7.25 | – | –
18 | CCN(C)Cc1nc2ccc3c(c2[nH]1)C(=O)c1ccccc1C3=O [CL03, 2-((ethylmethylamino)methyl)-1H-anthra[1,2-d]imidazole-6,11-dione] | 97.1 ± 12 | < 50 | -2.69 | 98.9 ± 3.64 | > 50 | –
19 | O=C1c2ccccc2C(=O)c2c1ccc1nc(CN3CCSCC3)[nH]c21 [CL22, 2-(thiomorpholinomethyl)-1H-anthra[1,2-d]imidazole-6,11-dione] | 115 ± 2.45 | 76.7 | 4.62 | 91.8 ± 3.61 | 77.5 | 0.93
20 | N#Cc1ccccc1N1CCN(Cc2nc3ccc4c(c3[nH]2)C(=O)c2ccccc2C4=O)CC1 [CL31, 2-((4-(2-cyanophenyl)piperazin-1-yl)methyl)-1H-anthra[1,2-d]imidazole-6,11-dione] | 106 ± 4.67 | 56.7 | 5.59 | 78.3 ± 5.02 | 61.7 | 21.6
21 | O=C1c2ccccc2C(=O)c2c1ccc1nc(CCN3CCN(Cc4ccccc4)CC3)[nH]c21 [CL40, 2-(2-(4-benzylpiperazin-1-yl)ethyl)-1H-anthra[1,2-d]imidazole-6,11-dione] | 73 ± 8.24 | – | -7.29 ± 0.0949 | 95.6 ± 8.22 | > 50 | 6.65
22 | O=C1c2ccccc2C(=O)c2c1ccc1nc(CN3CCN(Cc4ccccc4)CC3)[nH]c21 [CL33, 2-((4-benzylpiperazin-1-yl)methyl)-1H-anthra[1,2-d]imidazole-6,11-dione] | 97.8 ± 7.2 | – | -2.7 | 92.6 ± 1.56 | > 50 | 12.7
23 | O=C1c2ccccc2C(=O)c2c1ccc1nc(CN3CCN(c4ncccn4)CC3)[nH]c21 [CL29, 2-((4-(pyrimidin-2-yl)piperazin-1-yl)methyl)-1H-anthra[1,2-d]imidazole-6,11-dione] | 111 ± 3.55 | 92.2 | 19.4 | 85.5 ± 3.17 | 73.7 | 28.2
